From ChEMBL document CHEMBL4477252, “Optimization of microtubule affinity regulating kinase (MARK) inhibitors with improved physical properties” (Bioorg Med Chem Lett, 2016)

What was measured:
[1] = target: T1, Interleukin-1 receptor-associated kinase 4 (Homo sapiens, UniProt Q9NWZ3); experiment: Inhibition of full-length recombinant human His-tagged IRAK4 expressed in baculovirus expression system by Z'-LYTE assay
T1 sequence (Q9NWZ3 whole entry): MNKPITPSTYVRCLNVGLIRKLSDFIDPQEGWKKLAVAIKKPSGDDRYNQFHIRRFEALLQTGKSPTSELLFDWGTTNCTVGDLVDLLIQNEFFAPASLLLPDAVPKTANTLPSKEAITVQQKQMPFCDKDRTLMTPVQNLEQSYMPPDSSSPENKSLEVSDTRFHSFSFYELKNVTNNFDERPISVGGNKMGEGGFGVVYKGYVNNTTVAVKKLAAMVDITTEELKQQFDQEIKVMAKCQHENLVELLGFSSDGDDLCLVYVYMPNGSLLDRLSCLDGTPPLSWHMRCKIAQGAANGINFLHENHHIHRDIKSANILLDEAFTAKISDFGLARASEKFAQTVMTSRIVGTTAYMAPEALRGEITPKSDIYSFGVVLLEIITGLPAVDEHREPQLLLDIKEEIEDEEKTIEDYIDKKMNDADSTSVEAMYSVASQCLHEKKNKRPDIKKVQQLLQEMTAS

[2] = target: Protein-tyrosine kinase 6 (Homo sapiens, UniProt Q13882); experiment: Inhibition of full-length recombinant human His-tagged PTK6 expressed in baculovirus expression system by Z'-LYTE assay
Chain of Protein-tyrosine kinase 6 (Q13882 whole entry): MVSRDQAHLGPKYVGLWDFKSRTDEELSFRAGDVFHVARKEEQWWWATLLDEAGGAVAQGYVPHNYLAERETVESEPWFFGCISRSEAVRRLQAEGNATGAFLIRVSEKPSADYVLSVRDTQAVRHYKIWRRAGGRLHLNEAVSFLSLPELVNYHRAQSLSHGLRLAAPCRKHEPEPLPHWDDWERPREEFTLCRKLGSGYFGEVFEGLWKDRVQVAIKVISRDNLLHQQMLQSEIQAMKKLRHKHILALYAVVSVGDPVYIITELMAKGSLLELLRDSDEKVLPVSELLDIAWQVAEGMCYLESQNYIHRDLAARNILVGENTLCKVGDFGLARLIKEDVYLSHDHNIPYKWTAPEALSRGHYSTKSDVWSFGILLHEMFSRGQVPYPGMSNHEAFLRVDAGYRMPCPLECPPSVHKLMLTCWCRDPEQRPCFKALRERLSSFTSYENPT

[3] = Clearance in Sprague-Dawley rat at 1 mL/kg, iv administered through catheter measured after 24 hrs by LC-MS/MS analysis; assay type: ADME, organism-based; settings: in vivo
[4] = target: G protein-coupled receptor kinase 6 (Homo sapiens, UniProt P43250); experiment: Inhibition of full-length recombinant human GST-tagged GRK6 expressed in baculovirus expression system by Z'-LYTE assay
Chain of G protein-coupled receptor kinase 6 (P43250 whole entry): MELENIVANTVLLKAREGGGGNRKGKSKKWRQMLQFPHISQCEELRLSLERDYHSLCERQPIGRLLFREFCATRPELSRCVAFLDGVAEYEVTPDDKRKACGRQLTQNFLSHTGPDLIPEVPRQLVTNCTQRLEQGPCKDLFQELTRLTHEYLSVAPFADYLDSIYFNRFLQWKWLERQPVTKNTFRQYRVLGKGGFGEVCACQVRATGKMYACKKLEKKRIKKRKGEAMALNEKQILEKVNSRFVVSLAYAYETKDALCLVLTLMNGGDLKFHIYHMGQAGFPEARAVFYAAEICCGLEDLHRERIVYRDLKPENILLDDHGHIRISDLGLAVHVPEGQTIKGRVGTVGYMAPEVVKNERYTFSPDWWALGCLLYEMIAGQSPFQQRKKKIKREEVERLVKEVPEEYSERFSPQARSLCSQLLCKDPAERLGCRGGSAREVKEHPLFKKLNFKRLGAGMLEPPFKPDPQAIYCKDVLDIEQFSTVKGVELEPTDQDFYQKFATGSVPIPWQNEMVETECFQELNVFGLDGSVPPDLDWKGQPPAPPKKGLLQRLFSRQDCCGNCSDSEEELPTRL

[5] = target: RAC-alpha serine/threonine-protein kinase (Homo sapiens, UniProt P31749); experiment: Inhibition of full-length recombinant human His-tagged AKT1-alpha expressed in baculovirus expression system by Z'-LYTE assay
Chain of RAC-alpha serine/threonine-protein kinase (P31749 whole entry): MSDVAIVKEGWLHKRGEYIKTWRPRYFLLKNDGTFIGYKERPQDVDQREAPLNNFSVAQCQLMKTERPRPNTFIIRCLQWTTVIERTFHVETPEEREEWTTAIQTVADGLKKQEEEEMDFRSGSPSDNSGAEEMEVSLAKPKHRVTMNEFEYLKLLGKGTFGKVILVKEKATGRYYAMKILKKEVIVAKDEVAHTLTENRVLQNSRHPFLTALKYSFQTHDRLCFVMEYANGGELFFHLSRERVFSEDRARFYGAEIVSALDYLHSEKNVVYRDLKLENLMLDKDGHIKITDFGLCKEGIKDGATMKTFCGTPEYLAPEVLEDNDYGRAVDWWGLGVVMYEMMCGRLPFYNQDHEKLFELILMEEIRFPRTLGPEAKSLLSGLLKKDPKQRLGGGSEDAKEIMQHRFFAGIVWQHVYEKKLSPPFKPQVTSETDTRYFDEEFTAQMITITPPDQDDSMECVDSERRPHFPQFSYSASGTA

[6] = target: PI3-kinase p110-delta/p85-alpha (Homo sapiens, UniProt O00329); experiment: Inhibition of full-length recombinant human His-tagged PIK3P110D/P85A expressed in baculovirus expression system by Adapta assay
Chain of PI3-kinase p110-delta/p85-alpha (P27986 whole entry): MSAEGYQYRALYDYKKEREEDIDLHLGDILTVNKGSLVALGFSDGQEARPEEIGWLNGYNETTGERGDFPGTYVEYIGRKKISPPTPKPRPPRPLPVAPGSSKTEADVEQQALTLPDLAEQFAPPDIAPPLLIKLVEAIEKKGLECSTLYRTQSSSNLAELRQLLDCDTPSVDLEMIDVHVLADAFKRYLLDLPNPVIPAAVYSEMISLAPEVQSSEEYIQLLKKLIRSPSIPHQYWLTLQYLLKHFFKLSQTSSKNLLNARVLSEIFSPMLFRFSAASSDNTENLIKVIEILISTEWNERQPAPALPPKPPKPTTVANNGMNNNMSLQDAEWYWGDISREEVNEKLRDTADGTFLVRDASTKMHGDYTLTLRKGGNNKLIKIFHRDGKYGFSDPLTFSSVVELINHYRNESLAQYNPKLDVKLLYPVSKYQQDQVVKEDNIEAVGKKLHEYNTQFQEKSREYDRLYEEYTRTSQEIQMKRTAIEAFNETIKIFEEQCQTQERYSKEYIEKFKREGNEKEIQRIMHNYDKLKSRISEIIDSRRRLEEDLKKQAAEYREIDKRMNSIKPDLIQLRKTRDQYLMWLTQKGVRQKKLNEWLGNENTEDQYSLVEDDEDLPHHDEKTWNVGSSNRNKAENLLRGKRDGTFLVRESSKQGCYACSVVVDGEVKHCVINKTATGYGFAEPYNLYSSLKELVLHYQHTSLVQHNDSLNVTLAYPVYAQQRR
Chain of PI3-kinase p110-delta/p85-alpha (O00329 whole entry): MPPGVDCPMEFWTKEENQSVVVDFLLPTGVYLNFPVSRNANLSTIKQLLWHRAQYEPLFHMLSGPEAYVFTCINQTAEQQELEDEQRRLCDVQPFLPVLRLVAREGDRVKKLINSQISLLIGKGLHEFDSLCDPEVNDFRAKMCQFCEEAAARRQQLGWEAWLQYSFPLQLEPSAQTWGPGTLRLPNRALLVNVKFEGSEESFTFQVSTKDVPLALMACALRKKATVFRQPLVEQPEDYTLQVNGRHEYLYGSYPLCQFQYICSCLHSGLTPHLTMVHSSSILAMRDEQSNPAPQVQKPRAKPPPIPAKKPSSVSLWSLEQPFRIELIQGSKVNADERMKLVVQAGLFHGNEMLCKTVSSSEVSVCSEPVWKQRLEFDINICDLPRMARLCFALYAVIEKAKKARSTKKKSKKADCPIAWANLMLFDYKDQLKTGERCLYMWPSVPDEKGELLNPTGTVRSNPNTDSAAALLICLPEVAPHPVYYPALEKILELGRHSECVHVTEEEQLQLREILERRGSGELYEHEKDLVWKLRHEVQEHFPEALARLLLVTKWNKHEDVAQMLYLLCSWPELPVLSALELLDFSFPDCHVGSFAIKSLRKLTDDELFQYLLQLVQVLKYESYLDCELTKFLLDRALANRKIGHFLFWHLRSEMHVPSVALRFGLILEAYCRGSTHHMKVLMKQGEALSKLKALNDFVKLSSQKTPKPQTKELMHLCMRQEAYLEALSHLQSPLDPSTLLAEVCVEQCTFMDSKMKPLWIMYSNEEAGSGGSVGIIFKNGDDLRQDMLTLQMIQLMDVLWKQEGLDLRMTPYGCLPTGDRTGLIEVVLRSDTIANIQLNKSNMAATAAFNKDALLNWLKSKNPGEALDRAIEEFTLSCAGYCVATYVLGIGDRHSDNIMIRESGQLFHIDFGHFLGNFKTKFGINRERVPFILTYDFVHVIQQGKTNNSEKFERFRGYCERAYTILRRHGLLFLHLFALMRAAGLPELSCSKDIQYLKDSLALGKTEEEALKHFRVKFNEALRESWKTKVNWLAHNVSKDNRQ

[7] = target: Tyrosine-protein kinase SYK (Homo sapiens, UniProt P43405); experiment: Inhibition of full-length recombinant human N-terminal GST-tagged cytoplasmic SYK expressed in baculovirus expression system by Z'-LYTE assay
[8] = target: Mitogen-activated protein kinase 8 (Homo sapiens, UniProt P45983); experiment: Inhibition of full-length recombinant human His-tagged MAPK8 expressed in baculovirus expression system by Z'-LYTE assay
Chain of Mitogen-activated protein kinase 8 (P45983 whole entry): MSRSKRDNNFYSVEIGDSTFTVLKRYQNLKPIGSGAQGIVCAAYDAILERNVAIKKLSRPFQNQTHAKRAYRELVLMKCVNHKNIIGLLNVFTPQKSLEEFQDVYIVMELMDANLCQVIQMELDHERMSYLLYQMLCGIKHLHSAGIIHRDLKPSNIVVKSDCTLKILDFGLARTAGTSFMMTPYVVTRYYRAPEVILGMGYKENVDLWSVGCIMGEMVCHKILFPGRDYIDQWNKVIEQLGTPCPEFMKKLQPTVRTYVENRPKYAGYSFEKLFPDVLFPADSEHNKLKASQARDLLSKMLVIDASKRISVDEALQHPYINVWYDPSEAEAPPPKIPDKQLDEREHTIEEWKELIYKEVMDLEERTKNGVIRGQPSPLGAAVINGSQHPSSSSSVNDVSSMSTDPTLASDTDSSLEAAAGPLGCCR

[9] = target: T2, Protein kinase C iota type (Homo sapiens, UniProt P41743); experiment: Inhibition of full-length recombinant human His-tagged PRKCI expressed in baculovirus expression system by Z'-LYTE assay
T2 sequence (P41743 whole entry): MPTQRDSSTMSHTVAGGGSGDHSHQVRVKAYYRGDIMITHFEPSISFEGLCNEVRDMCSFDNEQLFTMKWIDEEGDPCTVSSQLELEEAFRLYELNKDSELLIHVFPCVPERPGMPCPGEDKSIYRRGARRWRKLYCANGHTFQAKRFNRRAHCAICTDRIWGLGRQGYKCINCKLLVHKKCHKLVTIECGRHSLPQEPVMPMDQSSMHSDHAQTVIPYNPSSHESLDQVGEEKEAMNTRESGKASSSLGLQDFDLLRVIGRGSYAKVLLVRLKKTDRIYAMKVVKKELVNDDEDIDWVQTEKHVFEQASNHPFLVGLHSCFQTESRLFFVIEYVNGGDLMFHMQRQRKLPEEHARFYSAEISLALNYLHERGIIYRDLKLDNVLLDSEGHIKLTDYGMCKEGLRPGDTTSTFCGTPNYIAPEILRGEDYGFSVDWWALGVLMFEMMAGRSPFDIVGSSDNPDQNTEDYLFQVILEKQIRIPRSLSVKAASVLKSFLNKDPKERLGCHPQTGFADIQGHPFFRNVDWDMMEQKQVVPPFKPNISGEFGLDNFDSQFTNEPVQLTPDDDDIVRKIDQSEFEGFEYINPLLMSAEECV

Activin receptor type-1B = target: T3, Activin receptor type-1B (Homo sapiens, UniProt P36896); experiment: Inhibition of recombinant human GST-tagged ALK4 catalytic domain expressed in baculovirus expression system by Z'-LYTE assay
T3 sequence (P36896 whole entry): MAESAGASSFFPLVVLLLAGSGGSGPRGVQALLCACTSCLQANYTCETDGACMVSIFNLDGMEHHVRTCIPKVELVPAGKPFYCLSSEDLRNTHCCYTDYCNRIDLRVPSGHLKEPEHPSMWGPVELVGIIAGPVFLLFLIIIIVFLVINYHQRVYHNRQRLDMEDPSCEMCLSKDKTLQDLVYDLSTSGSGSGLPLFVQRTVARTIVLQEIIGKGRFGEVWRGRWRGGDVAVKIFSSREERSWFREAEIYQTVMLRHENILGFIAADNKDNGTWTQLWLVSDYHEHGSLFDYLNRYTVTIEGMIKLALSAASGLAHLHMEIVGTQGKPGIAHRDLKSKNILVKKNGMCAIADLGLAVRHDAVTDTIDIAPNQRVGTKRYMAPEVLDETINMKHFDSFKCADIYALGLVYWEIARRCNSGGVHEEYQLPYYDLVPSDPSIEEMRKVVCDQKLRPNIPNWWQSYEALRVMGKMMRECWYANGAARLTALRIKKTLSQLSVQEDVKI

[10] = target: Cyclin-dependent kinase 7 (Homo sapiens, UniProt P50613); experiment: Inhibition of full-length recombinant human His-tagged CDK7 expressed in baculovirus expression system by Adapta assay
Chain of Cyclin-dependent kinase 7 (P50613 whole entry): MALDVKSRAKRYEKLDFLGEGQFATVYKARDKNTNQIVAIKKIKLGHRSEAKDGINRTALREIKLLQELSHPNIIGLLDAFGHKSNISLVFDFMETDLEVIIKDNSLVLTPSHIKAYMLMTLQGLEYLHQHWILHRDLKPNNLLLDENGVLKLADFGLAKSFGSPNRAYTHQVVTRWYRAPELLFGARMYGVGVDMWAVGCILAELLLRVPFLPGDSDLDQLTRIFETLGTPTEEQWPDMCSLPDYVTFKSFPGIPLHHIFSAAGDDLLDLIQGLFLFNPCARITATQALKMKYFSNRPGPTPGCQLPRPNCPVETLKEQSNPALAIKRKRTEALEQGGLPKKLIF

[11] = Volume of distribution in Sprague-Dawley rat at 1 mL/kg, iv administered through catheter or 5 mL/kg administered through gastric gavage measured after 24 hrs by LC-MS/MS analysis; assay type: ADME, organism-based; settings: in vivo
[12] = target: T4, Serine/threonine-protein kinase Nek2 (Homo sapiens, UniProt P51955); experiment: Inhibition of full-length recombinant human His-tagged NEK2 expressed in baculovirus expression system by Z'-LYTE assay
T4 sequence (P51955 whole entry): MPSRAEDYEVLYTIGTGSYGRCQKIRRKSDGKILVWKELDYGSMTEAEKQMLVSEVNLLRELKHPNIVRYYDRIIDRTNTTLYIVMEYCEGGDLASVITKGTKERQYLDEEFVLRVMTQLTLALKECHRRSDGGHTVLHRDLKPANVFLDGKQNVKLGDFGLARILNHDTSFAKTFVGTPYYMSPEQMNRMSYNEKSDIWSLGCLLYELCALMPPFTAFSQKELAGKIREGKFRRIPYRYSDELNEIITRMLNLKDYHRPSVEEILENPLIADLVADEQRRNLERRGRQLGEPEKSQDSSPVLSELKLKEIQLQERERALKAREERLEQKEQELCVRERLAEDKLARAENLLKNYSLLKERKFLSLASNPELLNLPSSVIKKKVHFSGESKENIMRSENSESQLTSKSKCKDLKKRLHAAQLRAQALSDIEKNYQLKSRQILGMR

Row | SMILES | IC50 [1] | IC50 [2] | clearance [3] | IC50 [4] | IC50 [5] | IC50 [6] | IC50 [7] | IC50 [8] | IC50 [9] | IC50 (Activin receptor type-1B) | IC50 [10] | Vd [11] | IC50 [12]
1 | Cn1cc(-c2cnc3c(-c4csc(C(=O)NCC(F)(F)F)c4)cnn3c2)cn1 | 0.064 µM | > 100 µM | 7.4 mL/min/kg | > 100 µM | > 100 µM | 1.5 µM | 0.75 µM | 24 µM | 6.7 µM | 0.17 µM | 0.053 µM | 0.77 L/kg | > 100 µM
2 | Cc1sc(C(=O)N[C@@H]2[C@H](N)CCCC2(F)F)cc1-c1cnn2cc(Cl)cnc12 | 3 µM | > 100 µM | 19 mL/min/kg | 1.7 µM | 0.87 µM | > 100 µM | 12 µM | 15 µM | 0.72 µM | > 100 µM | < 0.01 µM | 1.3 L/kg | 13 µM
3 | O=C(NCC(F)(F)F)c1cc(-c2cnn3cc(-c4ccc(OCCN5CCCCC5)cc4)cnc23)cs1 | 0.21 µM | 1.7 µM | 32 mL/min/kg | 17 µM | 24 µM | 55 µM | 0.44 µM | 2.8 µM | 1.5 µM | 0.2 µM | 0.03 µM | 14.2 L/kg | 16 µM
4 | Cn1cc(-c2cnc3c(-c4csc(C(=O)N[C@@H]5CCCC[C@@H]5N)c4)cnn3c2)cn1 (racemic) | 0.023 µM | 0.39 µM |  | 0.5 µM | 0.08 µM | 3.3 µM | 0.042 µM | 1.2 µM | 0.037 µM | 0.73 µM | 0.0041 µM | 29 L/kg | 0.95 µM
